Measured values reported in ChEMBL document CHEMBL3886228, “Substituted benzopiperazines as CETP inhibitors” (2015).

molecular target: T1, Cholesteryl ester transfer protein (Homo sapiens, UniProt P11597); assay: Scintillation Proximity Assay (SPA): First, low density lipoprotein (LDL) (Meridian) was biotinylated by incubating LDL with biotin for 1 hour on ice, after which it was dialyzed to remove free biotin. Then compounds at varying concentrations were incubated with 15 nM CETP (reagent production group, In Vitro Pharmacology, MRL Rahway) and 50 ug/ml of the biotinylated LDL in 50 mM HEPES, 150 mM NaCl, pH 7.4, for 1 hour at 37° C. The reaction was started by adding 3H-cholesterol ester high density lipoprotein (HDL) (American Radiochemicals Corp) at a concentration of ~0.6 nM. The reaction proceeded for 2 hours at 37° C., after which time it was quenched by the addition of 12% acetic acid. PVT streptavadin-coated scintillation proximity beads, which had been brought to room temperature, were then added at a concentration of 4 mg/ml. The assay was then mixed and counted after one half hour in a Microbeta plate reader.
T1 sequence (P11597 whole entry): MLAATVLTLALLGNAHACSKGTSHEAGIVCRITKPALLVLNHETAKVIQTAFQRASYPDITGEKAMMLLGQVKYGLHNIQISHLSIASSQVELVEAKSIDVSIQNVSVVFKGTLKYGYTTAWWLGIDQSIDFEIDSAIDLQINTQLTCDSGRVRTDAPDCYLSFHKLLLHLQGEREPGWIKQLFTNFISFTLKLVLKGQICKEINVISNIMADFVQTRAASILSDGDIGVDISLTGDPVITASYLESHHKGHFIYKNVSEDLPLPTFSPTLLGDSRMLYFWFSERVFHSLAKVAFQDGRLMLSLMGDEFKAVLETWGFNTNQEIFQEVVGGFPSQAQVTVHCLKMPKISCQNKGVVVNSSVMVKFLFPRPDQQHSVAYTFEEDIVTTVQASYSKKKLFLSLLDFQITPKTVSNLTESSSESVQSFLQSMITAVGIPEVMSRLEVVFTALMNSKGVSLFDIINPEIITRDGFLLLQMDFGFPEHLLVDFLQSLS

| IC50 | Compound |
| --- | --- |
| 630 nM | COc1cccc(CN2C[C@@H](c3cccc(C(F)(F)F)c3)N(C[C@@H](O)C(F)(F)F)c3ccccc32)n1 |
| 1430 nM | O[C@H](CN1c2ccccc2N(Cc2cccc(OC(F)(F)F)c2)C[C@H]1c1cccc2ccccc12)C(F)(F)F |
| 750 nM | CC(C)Oc1cccc(CN2C[C@@H](c3cccc(C(F)(F)F)c3)N(C[C@@H](O)C(F)(F)F)c3ccccc32)n1 |
| 310 nM | CCOc1cccc(CN2C[C@@H](c3cccc(C(F)(F)F)c3)N(C[C@@H](O)C(F)(F)F)c3ccccc32)n1 |
| 210 nM | COc1cccnc1CN1C[C@@H](c2cccc(C(F)(F)F)c2)N(C[C@@H](O)C(F)(F)F)c2ccccc21 |
| 67 nM | Cc1cc(CN2C[C@@H](c3cccc(C(F)(F)F)c3)N(C[C@@H](O)C(F)(F)F)c3ccccc32)cc(Cl)n1 |
